Values of other authors, collected in US20090048181A1, “Combination therapy with glatiramer acetate and n-acetylcysteine for the treatment of multiple sclerosis” (priority 2004, published 2009).

Assays:
[1] = system: EAE, a murine model of multiple sclerosis
TNF-α = conditions: ten human patients suffering from multiple sclerosis; efficacy could not be ascertained
[2] = system: relapsing-remitting multiple sclerosis; conditions: daily subcutaneous injections, 20 mg/injection

| Molecule | induction of EAE ([1]; SJL/J mice, oral administration) | effect in animals with established EAE ([1]; established EAE, correlated with treatment in a dose-related manner) | TNF-α level (TNF-α) | appearance of "black holes" [2] | appearance of new lesions by magnetic resonance imaging (MRI) [2] | progression of disability [2] | relapse rates [2] |
| --- | --- | --- | --- | --- | --- | --- | --- |
| CC(=O)N[C@@H](CS)C(=O)O [N-acetylcysteine] | attenuated | improvement | elevation |  |  |  |  |
| L-glutamic acid polymer with L-alanine, L-lysine and L-tyrosine, acetate (salt) [glatiramer acetate] |  |  |  | reduce | reduce | reduce | reduce |
